Measurements reported in ChEMBL document CHEMBL6087463, “Discovery of Novel 4,5,6,7-Tetrahydro-7H-pyrazolo[3,4-c]pyridin-7-one Derivatives as Orally Efficacious ATX Allosteric Inhibitors for the Treatment of Pulmonary Fibrosis” (J Med Chem, 2025).

Assays:
Autotaxin = Autotaxin (Homo sapiens, UniProt Q13822); assay: Inhibition of human ATX using LPC16:0 as substrate preincubated with compound for 20 mins followed by substrate addition and measured after 1 hr by fluorescence based microplate analysis
[1] = biological target: Voltage-gated inwardly rectifying potassium channel KCNH2 (Homo sapiens, UniProt Q12809); assay: Inhibition of hERG expressed in CHO cells by automated patch-clamp assay; format: toxicity, cell-based
Chain of Voltage-gated inwardly rectifying potassium channel KCNH2 (Q12809 whole entry): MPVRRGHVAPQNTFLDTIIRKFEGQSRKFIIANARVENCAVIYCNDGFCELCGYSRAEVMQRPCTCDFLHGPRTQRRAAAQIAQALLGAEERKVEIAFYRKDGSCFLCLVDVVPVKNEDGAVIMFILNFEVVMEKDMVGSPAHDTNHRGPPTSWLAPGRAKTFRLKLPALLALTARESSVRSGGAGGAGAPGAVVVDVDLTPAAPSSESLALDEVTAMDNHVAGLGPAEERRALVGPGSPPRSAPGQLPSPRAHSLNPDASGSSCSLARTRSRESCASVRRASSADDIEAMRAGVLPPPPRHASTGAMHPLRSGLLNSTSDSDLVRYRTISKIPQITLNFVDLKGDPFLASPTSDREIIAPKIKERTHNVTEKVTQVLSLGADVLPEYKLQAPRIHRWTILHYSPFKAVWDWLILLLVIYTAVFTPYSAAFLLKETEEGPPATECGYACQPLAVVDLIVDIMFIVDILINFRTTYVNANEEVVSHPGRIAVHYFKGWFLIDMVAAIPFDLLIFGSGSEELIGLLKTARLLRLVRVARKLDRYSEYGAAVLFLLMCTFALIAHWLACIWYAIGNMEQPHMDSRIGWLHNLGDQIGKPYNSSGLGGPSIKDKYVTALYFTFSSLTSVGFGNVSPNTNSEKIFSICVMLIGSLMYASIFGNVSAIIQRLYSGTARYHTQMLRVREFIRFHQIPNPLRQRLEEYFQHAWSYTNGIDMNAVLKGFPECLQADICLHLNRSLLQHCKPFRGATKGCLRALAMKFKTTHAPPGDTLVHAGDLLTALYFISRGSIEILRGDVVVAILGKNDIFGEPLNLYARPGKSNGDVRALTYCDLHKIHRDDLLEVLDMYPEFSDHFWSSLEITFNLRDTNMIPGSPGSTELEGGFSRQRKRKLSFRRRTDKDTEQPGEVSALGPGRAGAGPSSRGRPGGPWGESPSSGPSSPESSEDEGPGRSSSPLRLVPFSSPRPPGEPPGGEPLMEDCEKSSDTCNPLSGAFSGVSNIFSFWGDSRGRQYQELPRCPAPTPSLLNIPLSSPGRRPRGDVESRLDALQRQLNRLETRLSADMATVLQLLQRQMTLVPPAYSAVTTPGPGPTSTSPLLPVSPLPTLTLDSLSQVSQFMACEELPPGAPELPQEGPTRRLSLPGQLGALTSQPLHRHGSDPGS

Row | Compound | IC50 (Autotaxin) [µM] | IC50 [1] [µM]
1 | CC(C)n1cc(-n2nc(C(=O)NN3CCCC(C(=O)O)C3)c3c2C(=O)N(c2ccccc2)CC3)cn1 (configuration not stated) | 3.26 | 
2 | COCn1cc(-n2nc(C(=O)Nc3ccccc3C(=O)O)c3c2C(=O)N(c2ccccc2)CC3)cn1 |  | > 30
